Assay: dermal toxicity
Format: in vivo
Conditions: species and method not stated

| SMILES | dermal toxicity [mg/kg body weight] |
| --- | --- |
| CCN(CC)[P+](N(CC)CC)(N(CC)CC)N(CC)CC.[Br-] [tetrakis(diethylamino)phosphonium bromide, reference compound] | < 50 |
| C1CCN([P+](N2CCCCC2)(N2CCCCC2)N2CCCCC2)CC1.[Cl-] [tetrakis(piperidino)phosphonium chloride] | ~200 |
| C1CCN([P+](N2CCCC2)(N2CCCC2)N2CCCC2)C1.[Cl-] [tetrakis(pyrrolidino)phosphonium chloride] | ~390 |

— patent US6407029B1, “Mixtures comprising tetrakis(pyrrolidino/piperdino)phosphonium salts” (priority 1999, dated 2002)
